The text below walks through data of US7923231B2, “Production of glucuronic acid using myo-inositol oxygenase from cryptococcus neoformans” (Cargill, Incorporated, priority 2004, dated 2011).

For series [1] the following is noted: cited from earlier work.
For series [2], the system named is myo-inositol oxygenase (MIO). Nature of the series: Small-scale biocatalytic conversion: buffer concentration and ionic strength. The series is classed as biochemical, Cryptococcus neoformans. The following applies: for increase in initial reaction rate and final concentration of D-glucuronic acid produced: salts concentrations higher than 0.25 M. The procedure:
A small-scale protocol was used to develop the biocatalytic production of glucuronic acid from myo-inositol. Cells containing myo-inositol oxygenase were grown as described before, harvested by centrifugation and washed in 50 mM MOPS buffer at pH 7.0. The cell paste was kept frozen until use. To prepare the enzyme for the reaction, the cells were resuspended in 2 volumes of the same buffer at pH 6.5 and broken using either a French press or a MICROFLUIDICS® homogenizer (MICROFLUIDIZER® cell disruptor M-110L, available from Microfluidics, MA). Breakage was accomplished by 2 to 3 passes at 20,000 psi, and was followed visually using a microscope. The cell extract was centrifuged for 20 minutes at 15,000 rpm to remove the cell debris. Total soluble protein was measured in the clear supernatant, as described in Example 1. The cell extract was diluted to a protein concentration of 75 mg/ml and the enzyme was incubated for 1 hr on ice in the presence of ascorbic acid and ferrous ammonium sulfate at concentrations of 5 and 2 mM, respectively.
The enzyme reaction was carried out in 0.7 L reactors with temperature, pH, agitation and dissolved oxygen control. A solution of 50 g/L myo-inositol in 50 mM MOPS at pH 6.5 (200 mL) was used in the standard protocol. Temperature was controlled at 15° C. Pure air, air enriched with oxygen or pure oxygen were used to supply enough oxygen for the reaction to proceed. The air was supplied either in the headspace of the reactor or was sparged into the liquid. The formation of glucuronic acid results in a decrease in the pH of the broth. To keep the pH at the desired value, pH 6.5, the acid was neutralized with 4 N NaOH. The enzyme solution was added to reach an initial concentration of 2 g soluble protein/L. The reaction proceeded very fast immediately after the enzyme addition and the rate decayed over time. Different experiments varied the number and/or amount of enzyme additions. The progress of the reaction was followed by HPLC analysis.
Effect of buffer concentration and ionic strength. The effect of the buffer concentration was tested with the described protocol of Example 6, and included testing without any buffer, using 5 mM MOPS, and using 50 mM MOPS. No difference in the performance of the reaction was observed, either in reaction rate or in extent of reaction, as long as good pH control was provided.
Additionally, further studies on increasing the ionic strength of the broth by adding salts, using either NaCl or sodium glucuronate at 0.25 M and 0.5 M, or mixes of both, indicated better enzyme performance at higher ionic strength.

Series [3] relates to myo-inositol oxygenase (MIO). Nature of the series: Conversion rate additives in the myo-inositol conversion mixture. The format is biochemical, Cryptococcus neoformans. Conditions: additive in conversion mixture. An excerpt: Although the conversion rate increased, the final conversion percentages were similar to conversion mixtures without those same additives.
The nature of series [4]: Freeze-thaw and frozen storage stability of MIO activity. The following applies: continuous storage at −80° C. for several months. The source says: A lysed cell mixture may be added either purified or unpurified into a mixture for MIO activation. If desired, samples containing MIO may be stored prior to use. Samples containing MIO may be stored at low temperatures for short periods of time or may be frozen for longer periods of storage without significant MIO degradation. […] Additional freeze-thaw cycles, however, did reduce MIO activity.

Read-outs that look alike come from different tables or passages of the source.

With `N[C@@H](CS)C(=O)O` [Cysteine], in series [1] (pH 7), the reduction potential was −230 mV. As for `O=C1O[C@H]([C@@H](O)CO)C(O)=C1O` [L-ascorbic acid], the reduction potential entry in series [1] (25° C.) is on record as “+54 mV”; in series [1] (30° C.), “+51.2 mV”. On to `O=S(=O)(O)CCCN1CCOCC1` [MOPS, 3-[N-morpholino]propanesulfonic acid], for which the “effect of buffer concentration on reaction rate and extent of reaction” value in series [2] (no buffer, 5 mM and 50 mM MOPS, with good pH control) is reported as “No difference”. Regarding `[Cl-].[Na+]` [NaCl], in series [2], the “increase in initial reaction rate and final concentration of D-glucuronic acid produced” value is ~50%.

In the case of `O=C[C@H](O)[C@@H](O)[C@H](O)[C@H](O)C(=O)[O-].[Na+]` [sodium glucuronate, reference compound], in series [2] (high concentrations), the “inhibition of the reaction” value was “Some inhibition”. For the same molecule, the “increase in initial reaction rate and final concentration of D-glucuronic acid produced” value in series [2] was ~50%. Consider “Bovine serum albumin: protein tested as conversion rate additive”, for which, in series [3], the “effect on MIO specific activity and conversion rate” value is on record as “minimal effect”. Same read-out and setting: for Superoxide dismutase the value was “slightly increase”. In the case of catalase, in series [3] (after 6.5 hours), the improvement in conversion was 18%.

B1: MIO: Fe(II) containing enzyme that converts myo-inositol to D-glucuronic acid using oxygen (protein, UniProt Q9UGB7 1-285, looked up)
Inositol oxygenase: MKVTVGPDPSLVYRPDVDPEVAKDKASFRNYTSGPLLDRVFTTYKLMHTHQTVDFVRSKHAQFGGFSYKKMTVMEAVDLLDGLVDESDPDVDFPNSFHAFQTAEGIRKAHPDKDWFHLVGLLHDLGKVLALFGEPQWAVVGDTFPVGCRPQASVVFCDSTFQDNPDLQDPRYSTELGMYQPHCGLDRVLMSWGHDEYMYQVMKFNKFSLPPEAFYMIRFHSFYPWHTGRDYQQLCSQQDLAMLPWVREFNKFDLYTKCPDLPDVDKLRPYYQGLIDKYCPGILSW
For the molecule B1, the “MIO activity on long-term storage” value in series [4] was “remained stable”.
